According to PubChem BioAssay (NCI):
Values joined by “and” are separate entries in the source; they are usually repeats but may differ in a detail not shown here. Equal entries are not always repeated.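 Each compound was tested at five concentrations against cells in 96-well plates for 48 hours. GI50: concentration for 50% inhibition of growth. At the TGI there is no net growth.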

Experiments:
Assay in all cases: NCI tumour cell line growth inhibition, 48 h
DLD-1 colon = tested on: DLD-1 colon
KM20L2 colon = tested on: KM20L2 colon
CAKI-1 renal = tested on: CAKI-1 renal
M14 melanoma = tested on: M14 melanoma
U251 CNS = tested on: U251 CNS
OVCAR-3 ovarian = tested on: OVCAR-3 ovarian
SR leukemia = tested on: SR leukemia
HL-60(TB) leukemia = tested on: HL-60(TB) leukemia
MOLT-4 leukemia = tested on: MOLT-4 leukemia
UACC-62 melanoma = tested on: UACC-62 melanoma
IGROV1 ovarian = tested on: IGROV1 ovarian
LXFL 529 NSCLC = tested on: LXFL 529 NSCLC
COLO 205 colon = tested on: COLO 205 colon
A498 renal = tested on: A498 renal
HCC-2998 colon = tested on: HCC-2998 colon
TK-10 renal = tested on: TK-10 renal
786-0 renal = tested on: 786-0 renal
EKVX NSCLC = tested on: EKVX NSCLC
HCT-116 colon = tested on: HCT-116 colon
HCT-15 colon = tested on: HCT-15 colon
OVCAR-5 ovarian = tested on: OVCAR-5 ovarian
XF 498 CNS = tested on: XF 498 CNS
M19-MEL melanoma = tested on: M19-MEL melanoma
DMS 114 small cell lung = tested on: DMS 114 small cell lung
NCI-H522 lung = tested on: NCI-H522 lung
SNB-78 CNS = tested on: SNB-78 CNS
K-562 leukemia = tested on: K-562 leukemia
SF-295 CNS = tested on: SF-295 CNS
SK-MEL-2 melanoma = tested on: SK-MEL-2 melanoma
SF-539 CNS = tested on: SF-539 CNS
NCI-H23 lung = tested on: NCI-H23 lung
SNB-75 CNS = tested on: SNB-75 CNS
CCRF-CEM leukemia = tested on: CCRF-CEM leukemia
OVCAR-8 ovarian = tested on: OVCAR-8 ovarian
OVCAR-4 ovarian = tested on: OVCAR-4 ovarian
SK-MEL-5 melanoma = tested on: SK-MEL-5 melanoma
LOX IMVI melanoma = tested on: LOX IMVI melanoma
HOP-92 NSCLC = tested on: HOP-92 NSCLC
ACHN renal = tested on: ACHN renal
UO-31 renal = tested on: UO-31 renal
KM12 colon = tested on: KM12 colon
DMS 273 small cell lung = tested on: DMS 273 small cell lung
UACC-257 melanoma = tested on: UACC-257 melanoma
SNB-19 CNS = tested on: SNB-19 CNS
RXF-631 renal = tested on: RXF-631 renal
RXF 393 renal = tested on: RXF 393 renal
SF-268 CNS = tested on: SF-268 CNS
HOP-18 NSCLC = tested on: HOP-18 NSCLC
A549 NSCLC = tested on: A549 NSCLC
NCI-H226 lung = tested on: NCI-H226 lung
SK-MEL-28 melanoma = tested on: SK-MEL-28 melanoma
SW-620 colon = tested on: SW-620 colon
HOP-62 NSCLC = tested on: HOP-62 NSCLC
NCI-H460 lung = tested on: NCI-H460 lung
SN12C renal = tested on: SN12C renal
RPMI-8226 leukemia = tested on: RPMI-8226 leukemia
SK-OV-3 ovarian = tested on: SK-OV-3 ovarian
MALME-3M melanoma = tested on: MALME-3M melanoma
HT29 colon = tested on: HT29 colon
T-47D breast = tested on: T-47D breast
HS 578T breast = tested on: HS 578T breast
NCI/ADR-RES ovarian = tested on: NCI/ADR-RES ovarian
DU-145 prostate = tested on: DU-145 prostate
MDA-MB-231 breast = tested on: MDA-MB-231 breast
PC-3 prostate = tested on: PC-3 prostate
MCF7 breast = tested on: MCF7 breast
MDA-MB-435 = tested on: MDA-MB-435
MDA-N = tested on: MDA-N
P388 leukemia = tested on: P388 leukemia
SN12K1 renal = tested on: SN12K1 renal
P388/ADR leukemia = tested on: P388/ADR leukemia
BT-549 breast = tested on: BT-549 breast

CC(=O)OCC1OC(OC2CC3C(C)(C)C(OC(C)=O)CC[C@]3(C)C3CCC45CC4(CC[C@H]5C(C)CC(O)C4OC4(C)C)[C@]23C)C(O)C(O)C1O (stereo not given in full)
GI50 (DLD-1 colon): 2.38 µM
TGI (DLD-1 colon): 4.4 µM and 4.77 µM
GI50 (KM20L2 colon): > 60 µM
GI50 (CAKI-1 renal): 15.6 µM
TGI (CAKI-1 renal): 12.2 µM and 29.9 µM
TGI (M14 melanoma): 6.75 µM and 6.61 µM
GI50 (U251 CNS): 3.13 µM
TGI (U251 CNS): 7.73 µM and 11.8 µM
TGI (OVCAR-3 ovarian): 8.76 µM and 7.08 µM
TGI (SR leukemia): 8.58 µM
GI50 (HL-60(TB) leukemia): 0.623 µM
TGI (HL-60(TB) leukemia): 2.09 µM and 3.03 µM
GI50 (MOLT-4 leukemia): 2.52 µM
TGI (MOLT-4 leukemia): 1.09 µM and 7.69 µM
GI50 (UACC-62 melanoma): > 60 µM
GI50 (IGROV1 ovarian): 2.42 µM
TGI (IGROV1 ovarian): 0.829 µM and 4.56 µM
GI50 (LXFL 529 NSCLC): 3.74 µM
TGI (LXFL 529 NSCLC): 10.6 µM and 15.2 µM
GI50 (COLO 205 colon): 2.05 µM
TGI (COLO 205 colon): 1.84 µM and 3.79 µM
TGI (A498 renal): 10.2 µM
GI50 (HCC-2998 colon): 2.68 µM
TGI (HCC-2998 colon): 2.71 µM and 4.26 µM
TGI (TK-10 renal): 9.79 µM and 12.7 µM
GI50 (786-0 renal): 3.58 µM
TGI (786-0 renal): 10.6 µM and 14.1 µM
GI50 (EKVX NSCLC): > 60 µM
TGI (EKVX NSCLC): > 60 µM and 11.7 µM
GI50 (HCT-116 colon): 2.14 µM
TGI (HCT-116 colon): 3.46 µM and 4.42 µM
GI50 (HCT-15 colon): 4.04 µM
TGI (HCT-15 colon): 6 µM and 13.3 µM
GI50 (OVCAR-5 ovarian): 2.02 µM
TGI (OVCAR-5 ovarian): 2.52 µM and 4.46 µM
GI50 (XF 498 CNS): 1.26 µM
TGI (XF 498 CNS): 3.64 µM and 3.81 µM
GI50 (M19-MEL melanoma): 2.35 µM
TGI (M19-MEL melanoma): 6.5 µM and 6.19 µM
TGI (DMS 114 small cell lung): 5.46 µM and 4.32 µM
GI50 (NCI-H522 lung): 1.91 µM
TGI (NCI-H522 lung): 5.33 µM and 3.91 µM
GI50 (SNB-78 CNS): 3.96 µM
TGI (SNB-78 CNS): 13.3 µM and 16.2 µM
TGI (K-562 leukemia): 2.22 µM
GI50 (SF-295 CNS): 3.34 µM
TGI (SF-295 CNS): 5.5 µM and 11 µM
GI50 (SK-MEL-2 melanoma): 4.29 µM
TGI (SK-MEL-2 melanoma): 6.17 µM and 14.6 µM
GI50 (SF-539 CNS): 2.47 µM
TGI (SF-539 CNS): 8.92 µM and 6.62 µM
GI50 (NCI-H23 lung): 2.55 µM
TGI (NCI-H23 lung): 10.4 µM and 6.58 µM
GI50 (SNB-75 CNS): 3.7 µM
TGI (SNB-75 CNS): 8.23 µM and 12.4 µM
GI50 (CCRF-CEM leukemia): 2.19 µM
TGI (CCRF-CEM leukemia): 2.3 µM and 5.04 µM
GI50 (OVCAR-8 ovarian): 3 µM
TGI (OVCAR-8 ovarian): 8.24 µM and 9.67 µM
GI50 (OVCAR-4 ovarian): 15.3 µM
TGI (OVCAR-4 ovarian): 6.27 µM and 38.9 µM
TGI (SK-MEL-5 melanoma): 5.79 µM
GI50 (LOX IMVI melanoma): 1.25 µM
TGI (LOX IMVI melanoma): 3.72 µM and 2.58 µM
TGI (HOP-92 NSCLC): 6.33 µM
GI50 (ACHN renal): 3.44 µM
TGI (ACHN renal): 7.28 µM and 11.7 µM
TGI (UO-31 renal): 11.1 µM and 14.4 µM
GI50 (KM12 colon): 1.56 µM
TGI (KM12 colon): 3.82 µM and 3.15 µM
TGI (DMS 273 small cell lung): 5.76 µM and 4.37 µM
GI50 (UACC-257 melanoma): 4.1 µM
TGI (UACC-257 melanoma): 7.28 µM and 14.7 µM
GI50 (SNB-19 CNS): 4.97 µM
TGI (SNB-19 CNS): 12.4 µM and 17.6 µM
TGI (RXF-631 renal): 9.55 µM
TGI (RXF 393 renal): 4 µM
GI50 (SF-268 CNS): 3.67 µM
TGI (SF-268 CNS): 9.14 µM and 14.5 µM
TGI (HOP-18 NSCLC): 8.91 µM and 5.96 µM
GI50 (A549 NSCLC): 4.26 µM
TGI (A549 NSCLC): 8.37 µM and 15.2 µM
TGI (NCI-H226 lung): 11.6 µM
GI50 (SK-MEL-28 melanoma): 2.99 µM
TGI (SK-MEL-28 melanoma): 7.11 µM and 9.32 µM
GI50 (SW-620 colon): 3.46 µM
TGI (SW-620 colon): 9.98 µM and 11.3 µM
GI50 (HOP-62 NSCLC): 2.39 µM
TGI (HOP-62 NSCLC): 12.6 µM and 5.37 µM
GI50 (NCI-H460 lung): 3.21 µM
TGI (NCI-H460 lung): 5.75 µM and 9.38 µM
GI50 (SN12C renal): 4.44 µM
TGI (SN12C renal): 8.75 µM and 14.9 µM
TGI (RPMI-8226 leukemia): 5 µM
GI50 (SK-OV-3 ovarian): 3.22 µM
TGI (SK-OV-3 ovarian): 8.7 µM and 11.2 µM
GI50 (MALME-3M melanoma): 4.67 µM
TGI (MALME-3M melanoma): 16.6 µM and 8.6 µM
GI50 (HT29 colon): 1.86 µM
TGI (HT29 colon): 1.73 µM and 3.38 µM

NC(=O)c1[nH]nc(C2OC(CO)C(O)C2O)c1O (stereo not given)
TGI (T-47D breast): > 2990 µM
TGI (DLD-1 colon): 447 µM
TGI (KM20L2 colon): > 5000 µM
TGI (CAKI-1 renal): 158 µM
TGI (M14 melanoma): 882 µM
TGI (U251 CNS): 4010 µM
TGI (OVCAR-3 ovarian): 424 µM
TGI (SR leukemia): > 232 µM
TGI (HL-60(TB) leukemia): 63.7 µM
TGI (MOLT-4 leukemia): 386 µM
TGI (HS 578T breast): 1620 µM
TGI (UACC-62 melanoma): 579 µM
TGI (IGROV1 ovarian): 1280 µM
TGI (NCI/ADR-RES ovarian): 105 µM
TGI (COLO 205 colon): 1660 µM
TGI (A498 renal): 444 µM
TGI (HCC-2998 colon): 378 µM
TGI (DU-145 prostate): > 5000 µM
TGI (TK-10 renal): 2320 µM
TGI (786-0 renal): > 2870 µM
TGI (EKVX NSCLC): 1960 µM
TGI (MDA-MB-231 breast): 670 µM
TGI (HCT-116 colon): 3770 µM
TGI (HCT-15 colon): 838 µM
TGI (OVCAR-5 ovarian): 2830 µM
TGI (XF 498 CNS): 247 µM
TGI (M19-MEL melanoma): > 3890 µM
TGI (DMS 114 small cell lung): 858 µM
TGI (NCI-H522 lung): 1050 µM
TGI (SNB-78 CNS): 2820 µM
TGI (K-562 leukemia): 2290 µM
TGI (SF-295 CNS): 848 µM
TGI (SK-MEL-2 melanoma): 843 µM
TGI (SF-539 CNS): 505 µM
TGI (NCI-H23 lung): 386 µM
TGI (SNB-75 CNS): 840 µM
TGI (CCRF-CEM leukemia): 2360 µM
TGI (OVCAR-8 ovarian): 212 µM
TGI (OVCAR-4 ovarian): 520 µM
TGI (PC-3 prostate): 794 µM
TGI (SK-MEL-5 melanoma): 4090 µM
TGI (LOX IMVI melanoma): 309 µM
TGI (MCF7 breast): 1060 µM
TGI (HOP-92 NSCLC): 279 µM
TGI (ACHN renal): 1730 µM
TGI (MDA-MB-435): 469 µM
TGI (UO-31 renal): 1020 µM
TGI (KM12 colon): 2980 µM
TGI (MDA-N): 923 µM
TGI (DMS 273 small cell lung): 210 µM
TGI (UACC-257 melanoma): > 5000 µM
TGI (SNB-19 CNS): > 4620 µM
TGI (RXF 393 renal): 551 µM
TGI (SF-268 CNS): 3560 µM
TGI (P388 leukemia): 802 µM
TGI (HOP-18 NSCLC): 812 µM
TGI (SN12K1 renal): 663 µM
TGI (A549 NSCLC): 289 µM
TGI (NCI-H226 lung): 2220 µM
TGI (SK-MEL-28 melanoma): > 5000 µM
TGI (SW-620 colon): 2050 µM
TGI (HOP-62 NSCLC): 478 µM
TGI (NCI-H460 lung): 415 µM
TGI (SN12C renal): 819 µM
TGI (RPMI-8226 leukemia): 1830 µM
TGI (P388/ADR leukemia): 241 µM
TGI (SK-OV-3 ovarian): 460 µM
TGI (MALME-3M melanoma): 2660 µM
TGI (HT29 colon): 3420 µM
TGI (BT-549 breast): 1160 µM
